Counter-ions that a name gives are not always drawn.
melting point | Compound
298 to 300 °C | CC(C)(C)c1ccc(C(=O)Nc2cn3nc(-n4ccnc4)ccc3n2)cc1 (as salt: hydrochloride) [Example 141, 4-tert-butyl-N-[6-(1H-imidazol-1-yl)imidazo[1,2-b]pyridazin-2-yl]benzamide dihydrochloride]
295 to 297 °C (dec.) | Cc1ncc(-c2ccc3nc(NC(=O)c4ccc(C(C)(C)C)cc4)cn3n2)[nH]1 (as salt: hydrochloride) [Example 156, 4-tert-butyl-N-[6-(2-methyl-1H-imidazol-5-yl)imidazo[1,2-b]pyridazin-2-yl]benzamide hydrochloride]
250 to 251 °C | CC(C)(CCc1nnn[nH]1)c1ccc(C(=O)Nc2cn3cc(Cl)ccc3n2)cc1 [Example 36, N-(6-chloroimidazo[1,2-a]pyridin-2-yl)-4-[1,1-dimethyl-3-(1H-tetrazol-5-yl)propyl]benzamide]
248 to 250 °C | CC(C)(C#N)c1ccc(C(=O)Nc2cn3cc(Cl)ccc3n2)cc1 [Example 38, N-(6-chloroimidazo[1,2-a]pyridin-2-yl)-4-(1-cyano-1-methylethyl)benzamide]
266 to 267 °C | CC(C)(c1ccc(C(=O)Nc2cn3cc(Cl)ccc3n2)cc1)c1nnn[nH]1 [Example 39, N-(6-chloroimidazo[1,2-a]pyridin-2-yl)-4-[1-methyl-1-(1H-tetrazol-5-yl)ethyl]benzamide]
310 to 312 °C | CC(C)(c1ccc(C(=O)Nc2cn3cc(Cl)ccc3n2)cc1)c1noc(=O)[nH]1 [Example 40, N-(6-chloroimidazo[1,2-a]pyridin-2-yl)-4-[1-methyl-1-(5-oxo-4,5-dihydro-1,2,4-oxadiazol-3-yl)ethyl]benzamide]
233 to 234 °C | CC(C)(CCC#N)c1ccc(C(=O)Nc2cn3cc(-n4ccnc4)ccc3n2)cc1 [Example 45, 4-(3-cyano-1,1-dimethylpropyl)-N-[6-(1H-imidazol-1-yl)imidazo[1,2-a]pyridin-2-yl]benzamide]
266 to 267 °C | CC(C)(CCc1nnn[nH]1)c1ccc(C(=O)Nc2cn3cc(-n4ccnc4)ccc3n2)cc1 [Example 46, 4-[1,1-dimethyl-3-(1H-tetrazol-5-yl)propyl]-N-[6-(1H-imidazol-1-yl)imidazo[1,2-a]pyridin-2-yl]benzamide]
204 to 205 °C | CC(C)(C)c1ccc(C(=O)Nc2cn3c(ccc4ccccc43)n2)cc1 [Example 50, 4-tert-butyl-N-(imidazo[1,2-a]quinolin-3-yl)benzamide]
230 to 231 °C | CC(C)(C)c1ccc(C(=O)Nc2cn3ccccc3n2)cc1 [Example 54, 4-tert-butyl-N-(imidazo[1,2-a]pyridin-2-yl)benzamide]
269 to 270 °C | Cc1c(NC(=O)c2ccc(C(C)(C)C)cc2)nc2ccc(Cl)nn12 [Example 55, 4-tert-butyl-N-(6-chloro-3-methylimidazo[1,2-b]pyridazin-2-yl)benzamide]
302 to 303 °C | Cc1c(NC(=O)c2ccc(C(C)(C)C)cc2)nc2ccc(-n3ccnc3)nn12 [Example 56, 4-tert-butyl-N-[6-(1H-imidazol-1-yl)-3-methylimidazo[1,2-b]pyridazin-2-yl]benzamide]
293 to 294 °C | CC(C)(C)c1ccc(C(=O)Nc2cn3cc(-c4ccncc4)ccc3n2)cc1 [Example 59, 4-tert-butyl-N-[6-(pyridin-4-yl)imidazo[1,2-a]pyridin-2-yl]benzamide]
258 to 259 °C | CC(C)(C)c1ccc(C(=O)Nc2cn3cc(-c4ccoc4)ccc3n2)cc1 [Example 61, 4-tert-butyl-N-[6-(3-furyl)imidazo[1,2-a]pyridin-2-yl]benzamide]
279 to 280 °C | CC(C)(C)c1ccc(C(=O)Nc2cn3cc(-c4ccc[nH]4)ccc3n2)cc1 [Example 62]
274 to 275 °C | CC(C)(C)c1ccc(C(=O)Nc2cn3cc(-n4cccc4)ccc3n2)cc1 [Example 64, 4-tert-butyl-N-[6-(1H-pyrrol-1-yl)-imidazo[1,2-a]pyridin-2-yl]benzamide]

The next lines start with the compound.

Compound | melting point
CN(C)c1ccc2nc(NC(=O)c3ccc(C(C)(C)C)cc3)cn2n1.Cl | 259 to 260 °C
CC(C)(C)c1ccc(C(=O)Nc2cn3nc(N)ccc3n2)cc1.Cl | 312 to 313 °C
CC(C)c1ncc(-c2ccc3nc(NC(=O)c4ccc(C(C)(C)C)cc4)cn3n2)[nH]1.Cl | 304 to 305 °C (dec.)
Cc1cccc2nc(NC(=O)c3ccc(C(C)(C)C)cc3)cn12.Cl | 204 to 205 °C
O=C([O-])c1ccc(C(=O)Nc2cn3cc(-n4ccnc4)ccc3n2)cc1.[K+] | > 400 °C
CC(C)(C)c1ccc(C(=O)Nc2cn3c4c(ccc3n2)OCC4)cn1 (as salt: hydrochloride) [Example 18, 6-tert-butyl-N-(1,2-dihydrofuro[2,3-e]imidazo[1,2-a]pyridin-7-yl)nicotinamide dihydrochloride] | 199 to 200 °C
CC(C)(C)c1ccc(C(=O)Nc2cn3nc(N4CCCC4)ccc3n2)cc1.Cl (hydrate or solvate) | 257 to 259 °C
CC(C)(C)c1ccc(C(=O)Nc2cn3c4c(ccc3n2)OCC4)cc1 [Example 14, 4-tert-butyl-N-(1,2-dihydrofuro[2,3-e]imidazo[1,2-a]pyridin-7-yl)benzamide] | 266 to 268 °C
COC(=O)C(C)(C)c1ccc(C(=O)Nc2cn3c4c(ccc3n2)OCC4)cc1 [Example 15, methyl 2-[4-(1,2-dihydrofuro[2,3-e]imidazo[1,2-a]pyridin-7-ylcarbamoyl)phenyl]-2-methylpropanoate] | 235 to 237 °C
CC(C)(C(=O)O)c1ccc(C(=O)Nc2cn3c4c(ccc3n2)OCC4)cc1 [Example 16, 2-[4-(1,2-dihydrofuro[2,3-e]imidazo[1,2-a]pyridin-7-ylcarbamoyl)phenyl]-2-methylpropanoic acid] | 293 to 295 °C
CC(C)(C)c1ccc(C(=O)Nc2cn3c4c(ccc3n2)OCC4)cn1 [Example 17, 6-tert-butyl-N-(1,2-dihydrofuro[2,3-e]imidazo[1,2-a]pyridin-7-yl)nicotinamide] | 246 to 248 °C
COC(=O)C(C)(C)c1ccc(C(=O)Nc2cn3cc(C)ccc3n2)cc1 [Example 19, methyl 2-methyl-2-{4-[(6-methylimidazo[1,2-a]pyridin-2-yl)carbamoyl]phenyl}propanoate] | 228 to 230 °C
Cc1ccc2nc(NC(=O)c3ccc(C(C)(C)C(=O)O)cc3)cn2c1 [Example 20] | 275 to 277 °C
CCOC(=O)CCC(C)(C)c1ccc(C(=O)Nc2cn3cc(C)ccc3n2)cc1 [Example 21, ethyl 4-methyl-4-{4-[(6-methylimidazo[1,2-a]pyridin-2-yl)carbamoyl]phenyl}pentanoate] | 152 to 154 °C
Cc1ccc2nc(NC(=O)c3ccc(C(C)(C)CCC(=O)O)cc3)cn2c1 [Example 22, 4-methyl-4-{4-[(6-methylimidazo[1,2-a]pyridin-2-yl)carbamoyl]phenyl}pentanoic acid] | 280 to 282 °C
COC(=O)C(C)(C)c1ccc(C(=O)Nc2cn3cc(I)ccc3n2)cc1 [Example 23, methyl 2-{4-[(6-iodoimidazo[1,2-a]pyridin-2-yl)carbamoyl]phenyl}-2-methylpropanoate] | 234 to 235 °C
COC(=O)C(C)(C)c1ccc(C(=O)Nc2cn3cc(-c4ccsc4)ccc3n2)cc1 [Example 24, methyl 2-methyl-2-(4-{[6-(3-thienyl)imidazo[1,2-a]pyridin-2-yl]carbamoyl}phenyl)propanoate] | 200 to 201 °C
CC(C)(C(=O)O)c1ccc(C(=O)Nc2cn3cc(-c4ccsc4)ccc3n2)cc1 [Example 25, 2-methyl-2-(4-{[6-(3-thienyl)imidazo[1,2-a]pyridin-2-yl]carbamoyl}phenyl)propanoic acid] | 304 to 306 °C
COC(=O)C(C)(C)c1ccc(C(=O)Nc2cn3cc(-c4ccoc4)ccc3n2)cc1 [Example 26, methyl 2-methyl-2-(4-{[6-(3-furyl)imidazo[1,2-a]pyridin-2-yl]carbamoyl}phenyl)propanoate] | 202 to 203 °C
CC(C)(C(=O)O)c1ccc(C(=O)Nc2cn3cc(-c4ccoc4)ccc3n2)cc1 [Example 27, 2-methyl-2-(4-{[6-(3-furyl)imidazo[1,2-a]pyridin-2-yl]carbamoyl}phenyl)propanoic acid] | 307 to 309 °C
CC(C)(C(=O)O)c1ccc(C(=O)Nc2cn3cc(-c4cn[nH]c4)ccc3n2)cc1 [Example 29, 2-methyl-2-(4-{[6-(1H-pyrazol-4-yl)imidazo[1,2-a]pyridin-2-yl]carbamoyl}phenyl)propanoic acid] | 306 to 307 °C
COC(=O)C(C)(C)c1ccc(C(=O)Nc2cn3cc(Cl)ccc3n2)cc1 [Example 30, methyl 2-{4-[(6-chloroimidazo[1,2-a]pyridin-2-yl)carbamoyl]phenyl}-2-methylpropanoate] | 245 to 246 °C
CC(C)(C(=O)O)c1ccc(C(=O)Nc2cn3cc(Cl)ccc3n2)cc1 [Example 31, 2-{4-[(6-chloroimidazo[1,2-a]pyridin-2-yl)carbamoyl]phenyl}-2-methylpropanoic acid] | 311 to 313 °C
CC(C)(CCC#N)c1ccc(C(=O)Nc2cn3cc(Cl)ccc3n2)cc1 [Example 32, N-(6-chloroimidazo[1,2-a]pyridin-2-yl)-4-(3-cyano-1,1-dimethylpropyl)benzamide] | 198 to 199 °C
CC(C)(C(=O)NO)c1ccc(C(=O)Nc2cn3cc(Cl)ccc3n2)cc1 [Example 33, N-(6-chloroimidazo[1,2-a]pyridin-2-yl)-4-[2-(hydroxyamino)-1,1-dimethyl-2-oxoethyl]benzamide] | 212 to 213 °C
CC(C)(C(=O)NCC#N)c1ccc(C(=O)Nc2cn3cc(Cl)ccc3n2)cc1 [Example 34, N-(6-chloroimidazo[1,2-a]pyridin-2-yl)-4-{2-[(cyanomethyl)amino]-cyano-1,1-dimethyl-2-oxoethyl}benzamide] | 268 to 269 °C
CC(C)(C(=O)NCCC#N)c1ccc(C(=O)Nc2cn3cc(Cl)ccc3n2)cc1 [Example 35, N-(6-chloroimidazo[1,2-a]pyridin-2-yl)-4-{2-[(2-cyanoethyl)amino]-1,1-dimethyl-2-oxoethyl}benzamide] | 208 to 209 °C

From patent US20100029619A1, “FUSED HETEROCYCLIC COMPOUND” (TAKEDA PHARMACEUTICAL COMPANY LIMTED, priority 2006, published 2010)
